# Data from patent US11142515B2, “Pyrazolyl-ureas as kinase inhibitors” (RESPIVERT LIMITED, priority 2014, dated 2021).
# Experiments:
# [1] = molecular target: T1, Syk (Homo sapiens, UniProt P43405); assay: Syk enzyme inhibition (Z-LYTE FRET); assay type: biochemical; conditions: for IC50: Table 2A
# T1 construct: purchased Life Technologies
# Method in brief: (§1)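 Enzyme (1000, 1400 or 2000 ng/mL stocks for c-Src, Hck, Syk respectively) preincubated 2 h at RT with compound (0.0012–40 μg/mL series), then FRET peptide plus ATP (800 μM c-Src; 60 μM Hck, Syk stocks) for 1 h. Protease development 1 h; phosphorylation from coumarin/fluorescein emission ratio.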
# [2] = system: d-U937 cells; assay: Cell viability: MTT assay in differentiated U937 cells; assay type: cell-based, human; conditions: 10 μg/mL
# Method in brief: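 Differentiated U937 cells exposed to compound at a final 10 μg/mL, either 4 h in 5% FCS RPMI1640 or 24 h in 10% FCS RPMI1640. MTT added for 1 h, formazan dissolved in DMSO, absorbance read at 550 nm; % viability loss relative to 0.5% DMSO vehicle, with increases shown as negative values.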
# [3] = molecular target: T2, p38MAPKγ (MAPK12) (Homo sapiens, UniProt P53778); assay: p38 MAPKγ enzyme inhibition (Z-LYTE FRET); assay type: biochemical; conditions: Table 2A; read-out: IC50 Values for Enzyme Inhibition p38 MAPKγ
# T2 construct: purchased Life Technologies
# T2 sequence (P53778 1-367): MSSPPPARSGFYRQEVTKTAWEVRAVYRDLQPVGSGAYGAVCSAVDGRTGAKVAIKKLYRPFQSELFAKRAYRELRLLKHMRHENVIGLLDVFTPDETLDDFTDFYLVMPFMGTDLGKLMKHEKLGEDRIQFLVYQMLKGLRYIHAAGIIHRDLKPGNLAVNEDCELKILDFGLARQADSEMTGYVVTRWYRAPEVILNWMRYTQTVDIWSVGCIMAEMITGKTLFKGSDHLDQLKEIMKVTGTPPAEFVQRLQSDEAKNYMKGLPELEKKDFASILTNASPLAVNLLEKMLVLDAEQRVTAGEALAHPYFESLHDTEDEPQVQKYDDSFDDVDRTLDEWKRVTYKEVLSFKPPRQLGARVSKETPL
# Method in brief: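 Z-LYTE read-out: after 1 h protease development, only non-phosphorylated peptide is cleaved, and the donor/acceptor (coumarin/fluorescein) ratio reports phosphorylation. Beforehand, enzyme and compound (stock concentrations 0.0012–40 μg/mL) were preincubated 2 h at RT, then the kinase reaction ran 1 h at RT with peptide and ATP (8 μM and 400 μM stocks).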
# [4] = system: neutrophil accumulation in BALF; assay: LPS-induced neutrophil accumulation in mice; assay type: in vivo, Balb/c mice; conditions: mice; for Neutrophil numbers in BALF / Neutrophil numbers in BALF, % inhibition: 0.2 mg/mL, LPS
# Protocol: Non-fasted Balb/c mice were […] by the intra tracheal route with either vehicle, or the test substance at the indicated times (within the range 2-8 h) before stimulation of the inflammatory response by application of an LPS challenge. At T=0, mice were placed into an exposure chamber and exposed to LPS (7.0 mL, 0.5 mg/mL solution in PBS for 30 min). After a further 8 h the animals were anesthetized, their tracheas cannulated and BALF extracted by infusing and then withdrawing from their lungs 1.0 mL of PBS via the tracheal catheter. Total and differential white cell counts in the BALF samples were measured using a Neubaur haemocytometer. Cytospin smears of the BALF samples were prepared by centrifugation at 200 rpm for 5 min at RT and stained using a DiffQuik stain system (Dade Behring). Cells were counted using oil immersion microscopy. Data for neutrophil numbers in BAL are shown as mean±S.E.M. (standard error of the mean). The percentage inhibition of neutrophil accumulation was calculated for each treatment relative to vehicle treatment.
# [5] = molecular target: T3, c-Src (Homo sapiens, UniProt P12931); assay: c-Src enzyme inhibition (Z-LYTE FRET); assay type: biochemical; conditions: Table 2A
# T3 construct: purchased Life Technologies
# Method in brief: as §1
# T3 sequence (P12931 whole entry): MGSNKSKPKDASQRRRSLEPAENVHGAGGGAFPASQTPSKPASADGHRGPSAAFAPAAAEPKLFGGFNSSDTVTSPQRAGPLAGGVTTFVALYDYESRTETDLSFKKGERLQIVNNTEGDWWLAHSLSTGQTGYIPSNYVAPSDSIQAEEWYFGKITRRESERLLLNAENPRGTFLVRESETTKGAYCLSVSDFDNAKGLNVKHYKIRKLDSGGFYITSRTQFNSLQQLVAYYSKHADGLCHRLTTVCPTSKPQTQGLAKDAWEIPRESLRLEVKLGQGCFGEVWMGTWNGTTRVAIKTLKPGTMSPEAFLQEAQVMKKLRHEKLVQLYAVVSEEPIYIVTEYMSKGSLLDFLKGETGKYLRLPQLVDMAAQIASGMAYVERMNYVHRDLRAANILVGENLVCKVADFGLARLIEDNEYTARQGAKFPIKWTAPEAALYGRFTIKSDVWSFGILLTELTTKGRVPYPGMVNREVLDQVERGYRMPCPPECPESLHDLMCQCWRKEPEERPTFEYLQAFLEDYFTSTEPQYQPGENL
Structure (SMILES),inhibitory activity against Syk (in words) [1],IC50 [1] [nM],"MTT Assay Cell viability at time point indicated in d-U937 Cells, 4 h [2]","MTT Assay Cell viability at time point indicated in d-U937 Cells, 24 h [2]",IC50 [3] [nM],Neutrophil numbers in BALF ([4]; pre-dose time 2 hr) [mL⁻¹],"Neutrophil numbers in BALF, % inhibition ([4]; pre-dose time 2 hr) [%]",Neutrophil numbers in BALF ([4]; pre-dose time 8 hr) [mL⁻¹],"Neutrophil numbers in BALF, % inhibition ([4]; pre-dose time 8 hr) [%]",LPS-induced neutrophil accumulation (in words) [4],duration of action (time course experiment) [4],IC50 [5] [nM]
"Cc1ccc(-n2nc(C(C)(C)C)cc2NC(=O)Nc2ccc(OCc3ccnc(Nc4cnccn4)c3)c3ccccc23)cc1 [Example 1, 1-(3-(tert-Butyl)-1-(p-tolyl)-1H-pyrazol-5-yl)-3-(4-((2-(pyrazin-2-ylamino)pyridin-4-yl)methoxy)naphthalen-1-yl)urea]",very much weaker than the Reference Compound,> 16700,"− (−ve and +ve indicate the value is below and above, respectively, the no significant effect threshold defined as 30% inhibition at 10 μg/mL at the time point indicated)","− (−ve and +ve indicate the value is below and above, respectively, the no significant effect threshold defined as 30% inhibition at 10 μg/mL at the time point indicated)",67,492000,67.8,759000,50.3,inhibition,long duration of action,98
CC(C)(C)c1cc(NC(=O)Nc2ccc(OCc3ccnc(Nc4cnccn4)c3)c3ccccc23)n(-c2cccc(Cl)c2)n1 [Example 50],,5820,"− (−ve and +ve indicate the value is below and above, respectively, the no significant effect threshold defined as 30% inhibition at 10 μg/mL at the time point indicated)","− (−ve and +ve indicate the value is below and above, respectively, the no significant effect threshold defined as 30% inhibition at 10 μg/mL at the time point indicated)",356,,,,,,,966
Cc1ccc(-n2nc(C(C)(C)C)cc2NC(=O)Nc2ccc(OCc3ccnc(Nc4cnccn4)c3)c3ccccc23)cc1C [Example 51],,> 16300,"− (−ve and +ve indicate the value is below and above, respectively, the no significant effect threshold defined as 30% inhibition at 10 μg/mL at the time point indicated)","− (−ve and +ve indicate the value is below and above, respectively, the no significant effect threshold defined as 30% inhibition at 10 μg/mL at the time point indicated)",171,,,,,,,160
Cc1ccc(-n2nc(C(C)(C)C)cc2NC(=O)Nc2ccc(OCc3ccnc(Nc4cnccn4)c3)c3ccccc23)cc1C(F)(F)F [Example 52],,> 15000,"− (−ve and +ve indicate the value is below and above, respectively, the no significant effect threshold defined as 30% inhibition at 10 μg/mL at the time point indicated)","− (−ve and +ve indicate the value is below and above, respectively, the no significant effect threshold defined as 30% inhibition at 10 μg/mL at the time point indicated)",> 15000,,,,,,,> 15000
